# Patent US5250544A, “New piperidine tetrahydropyridine and pyrrolidine compounds” (Adir et Compagnie, priority 1990, dated 1993)
# Assay: Evaluation of the antihypertensive activity: arterial pressure and heart rate in anesthetized dogs, i.v.
# Type: in vivo
# Details: anesthetized mongrel dogs, versus flesinoxan racemic or isomer (+)
# Method: Mongrel dogs (males and females) were anesthetized with phenobarbital (30 mg/kg i.v.) and then placed under artificial respiration (Bird Mark VII respirator). The arterial pressure was measured using a catheter placed in the abdominal aorta via the femoral artery. This catheter is connected to a pressure cell (Statham® R23 D6) connected to a recorder.
# The heart rate was measured using a Gould Biotach®.
# The sympathetic nervous activity was recorded at the level of the renal nerve using a silver electrode. […] The compounds to be examined were administered intravenously.
structure (smiles),measurement,value
"O=C(NCCN1CCN(c2cccc3c2OC[C@H](CO)O3)CC1)c1ccc(F)cc1 (single isomer, unassigned) [Flesinoxan (+) Isomer]","activity compared with reference product flesinoxan (antihypertensive study, Table II)",most active isomer of flesinoxan
